# Assays:
# [1] = test system: purified influenza A viral RNA; format: biochemical; conditions: 14 mM EGTA, 15 mM MgSO4, 100 mM Tris-Cl; about 20 minutes at room temperature, then 56° C., monitored 10 minutes; 0 or 100 copies
# [2] = test system: genomic DNA from Mycobacterium bovis BCG; format: biochemical, Mycobacterium bovis BCG (ATCC strain 190115); conditions: 15 mM EGTA, 15 mM MgSO4; 15 minutes at room temperature, then 56° C., monitored 40 minutes; 20 or 200 copies vs no template
# [3] = cited from earlier work
# [4] = NEAR reaction mixture, buffer pH 8 at room temperature, temperature increased to 56° C.; cited from earlier work
structure (smiles),measurement,setting,value
"O=C(O)CN(CCOCCOCCN(CC(=O)O)CC(=O)O)CC(=O)O [EGTA, Ethylene bis(oxyethylenenitrilo) tetraacetic acid]",Amplification (real-time fluorescence),[1],Amplification was observed only in the reactions that included both EGTA and 100 copies of viral RNA
same,Amplification (real-time fluorescence),[2],significant amplification was observed
"O=S(=O)(O)CCN1CCN(CCS(=O)(=O)O)CC1 [PIPES, piperazine-N,N′-bis(2-ethanesulfonic acid)]",pKa (20° C.),[3]; 20° C.,6.80
same,pKa (25° C.),[3]; 25° C.,6.76
same,pKa (37° C.),[3]; 37° C.,6.66
"NC(CO)(CO)CO [Tris, tris(hydroxymethyl)aminomethane]",pH of the temperature sensitive buffer,[4],< 7.4
